What was measured:
[1] = system: NefGFP release from HEK293 cells; assay: Nef-GFP co-transfection secretion assay, GFP fluorescence of supernatant; assay type: cell-based; details: HEK293, 0.5 μg Nef-GFP + 0.5 μg peptide, Chariot, 48 h; relative to NefGFP+sM1 (100%)
Experimental: Therefore, a set of co-transfection experiments were performed. HEK293 cells were co-transfected with 0.5 μg of pQBI-HIV Nef-GFP (expresses wild type Nef protein) and either 0.5 μg of HIV-1 Nef SMRwt or SMRmut peptide or sM1 peptide (a totally random control peptide, ALAETCQNAWA (SEQ ID NO: 7)) with Chariot. Briefly, the wild-type Nef-GFP clone and the SMR peptides were complexed with Chariot reagent for 30 minutes at RT. The DNA/peptide/Chariot complex was added to HEK293 cells in serum-free media, and the cells were plated. Following incubation for 2 hours at 37° C., media with serum was added to the dish, and the cells were incubated at 37° C. for 48 h. The media was then collected and assayed for secretion using a spectrofluorimeter. The conditioned supernatants from these cultures were assayed for GFP fluorescence by plate reader.

[2] = system: pNL4-3 in Jurkat cells; assay: p24 assay of virion production after pNL4-3 co-transfection; assay type: cell-based, HIV; details: Jurkat; for p24: co-transfected with pNL4-3; for Effect (a/b): p24 of sample / p24 of pNL4-3 + sM1
Experimental: I. Jurkat cells were co-transfected as shown below: (transfection efficiency 30-40% by Chariot Kit):
(§1) pNL4-3 is a clone containing the viral genome. Transfection into cells allows expression of the viral genome and ultimately virion formation and release. The amount of virion production in the extracellular supernatant is measured through p24 protein (viral protein). Samples were collected at 48 hours and 96 hours post-infection.
(§2) At 48 hr postinfection two plates in each group were removed and analyzed by: • a. p24 assay • b. Nef assay • c. Infectivity assay • At 96 hr postinfection the other two plates in each group were removed and analyzed by: • a. p24 assay • b. Nef assay • c. Infectivity assay

[3] = system: pNL4-3 in 293 cells; assay: as above; assay type: cell-based, HIV; details: for p24: co-transfected with pNL4-3; for Effect (a/b): p24 of sample / p24 of pNL4-3 + sM1
Experimental: as §1, §2

[4] = system: HIV-1 Gag-GFP secretion, HEK293; assay: HIV-1 Gag-GFP induced secretion, fluorescent plate reader assay; assay type: cell-based; details: HEK293, HIV-1 Gag-GFP (sM1 column head prints GFP/sM1), 0.5 μg peptide, 48 hours
Experimental: (§3) Cells were co-transfected with 0.5 μg of pQBI-HIV Gag-GFP (expresses wild type Gag protein) and either 0.5 μg of HIV-1 Nef SMRwt, SMRmut peptide, sM1 peptide or untransfected controls with Chariot for 48 hours. The conditioned supernatants from these cultures were assayed for GFP fluorescence by plate reader.

[5] = system: HIV-1 Gag-GFP secretion, Jurkat; assay: as above; assay type: cell-based; details: HIV-1 Gag-GFP (sM1 column head prints GFP/sM1), 0.5 μg peptide, 48 hours
Experimental: as §3

[6] = system: HIV-1 Gag-GFP secretion, THP-1; assay: as above; assay type: cell-based; details: THP-1, HIV-1 Gag-GFP (sM1 column head prints GFP/sM1), 0.5 μg peptide, 48 hours
Experimental: as §3

[7] = system: HIV-1 Gag-GFP secretion, U937; assay: as above; assay type: cell-based; details: U937, HIV-1 Gag-GFP (sM1 column head prints GFP/sM1), 0.5 μg peptide, 48 hours
Experimental: as §3

[8] = system: HIV-1 Nef-GFP secretion, cell line H; assay: HIV-1 Nef-GFP induced secretion, fluorescent plate reader assay; assay type: cell-based; details: HIV-1 Nef-GFP (sM1 column head prints GFP/sM1)
[9] = system: Gag-GFP + HIV-1wtNef-RFP secretion, Jurkat; assay: Gag-GFP secretion in presence of wtNef-RFP, fluorescent plate reader assay; assay type: cell-based; details: Jurkat, Gag-GFP + HIV-1wtNef-RFP + peptide, 48 hours
Experimental: (§4) Cells were transfected with the pQBI-HIV Gag-GFP construct, wtNef-RFP, and either the antagonist (SMRwt peptide), the negative control SMRmt peptide, or a random peptide sM1 with Chariot for 48 hours. The conditioned supernatants from these cultures were assayed for GFP fluorescence by plate reader.

[10] = system: Gag-GFP + HIV-1wtNef-RFP secretion, THP-1 Monocyte; assay: as above; assay type: cell-based; details: Gag-GFP + HIV-1wtNef-RFP + peptide, 48 hours
Experimental: as §4

[11] = system: human tumor cell lines; details: cited from earlier work
[12] = molecular target: Mortalin (Homo sapiens, UniProt P38646); details: literature; inactivates chaperone function; cited from earlier work
[13] = lower doses could be less toxic; cited from earlier work

Sequence of Mortalin (P38646 47-679): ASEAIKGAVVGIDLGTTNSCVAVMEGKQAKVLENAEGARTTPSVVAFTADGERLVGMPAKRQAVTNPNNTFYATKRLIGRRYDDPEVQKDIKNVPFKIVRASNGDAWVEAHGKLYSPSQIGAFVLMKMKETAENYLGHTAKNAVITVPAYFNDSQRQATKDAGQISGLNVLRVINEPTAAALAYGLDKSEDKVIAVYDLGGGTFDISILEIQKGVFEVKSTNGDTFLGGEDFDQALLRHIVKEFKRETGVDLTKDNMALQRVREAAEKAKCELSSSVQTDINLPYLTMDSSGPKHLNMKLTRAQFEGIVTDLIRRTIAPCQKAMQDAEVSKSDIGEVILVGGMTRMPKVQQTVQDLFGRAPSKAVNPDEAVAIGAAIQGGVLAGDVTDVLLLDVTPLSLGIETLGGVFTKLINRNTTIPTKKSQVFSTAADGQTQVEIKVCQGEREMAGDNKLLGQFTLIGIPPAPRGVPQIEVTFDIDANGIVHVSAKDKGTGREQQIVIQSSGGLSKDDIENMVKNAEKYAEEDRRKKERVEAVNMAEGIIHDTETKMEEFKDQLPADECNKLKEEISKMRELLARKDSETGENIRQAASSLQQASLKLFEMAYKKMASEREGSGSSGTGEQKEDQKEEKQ

Compound: ALAETCQNAWA [sM1, a totally random control peptide]
- release of NefGFP into the extracellular supernatant (GFP fluorescence) [1]: no effect
- p24 ([2]; 48 hr): 0 pg/mL
- Effect (a/b) ([2]; 48 hr): 1
- p24 ([2]; 96 hr): 30 pg/mL
- Effect (a/b) ([2]; 96 hr): 1
- p24 ([3]; 293, 48 hr): 45 pg/mL
- Effect (a/b) ([3]; 293, 48 hr): 1.0
- p24 ([3]; 293, 96 hr): 960 pg/mL
- Effect (a/b) ([3]; 293, 96 hr): 1
- Increase in Secretion (relative to untransfected cells), exp condition/UT [4]: 2.05x
- Increase in Secretion (relative to untransfected cells), exp condition/UT [5]: 1.09x
- Increase in Secretion (relative to untransfected cells), exp condition/UT [6]: 0.85x
- Increase in Secretion (relative to untransfected cells), exp condition/UT [7]: 1.05x
- Increase in Secretion (relative to untransfected cells), exp condition/UT [8]: 1.05x
- Secretion relative to untransfected cells ([9]; first line): 61.99x
- Secretion relative to untransfected cells ([9]; second line (not explained)): 40.36x
- Secretion relative to untransfected cells ([10]; first line): 43.11x
- Secretion relative to untransfected cells ([10]; second line (not explained)): 20.51x

Compound: CCn1c(=O)/c(=C2\Sc3ccccc3N2C)s/c1=C\c1cccc[n+]1CC.[Cl-] [MKT-077]
- death of cancer cells ([11]; literature (Deocaris et al. 2007)): causes selective death of cancer cells
- senescence in human tumor cell lines ([11]; literature): inducing senescence
- binding to Mortalin [12]: binds to the nucleotide-binding domain (NBD) of Mortalin
- toxicity in clinical trials [13]: renal toxicity

Source: patent publication US8431530B2, “Compositions and methods for treating aids or cancer by inhibiting the secretion of microparticles” (priority 2009, dated 2013)
